Measured values from US20220183279A1, “STABILIZED THIOKETONE FORMULATIONS” (priority 2019, published 2022).

Assay: Effect of 5% by weight additives on prothioconazole in N,N-dimethyldecanamide, LED 350 nm, 24 hours
Type: physicochemical
Settings: 0.4 g prothioconazole, 1.5 g N,N-dimethyldecanamide, 0.1 g stabiliser (5% by weight), 19 mW/cm^2, 24 hours, Comparison without additive 1539 ppm
Experimental: 0.4 g of prothioconazole, 1.5 g of N,N-dimethyldecanamide and 0.1 g of the respective stabiliser were combined in a 20 ml vial. The reaction mixtures were irradiated in a photoreactor with stirring (magnetic stirrer) using LED lamps (wavelength 350 nm, 19 mW/cm^2) for 24 hours. Samples were then taken and the respective content of compound III was determined by HPLC chromatography (column: Agilent Zorbax Eclipse Plus C18, 50×4.6 mm, 1.8 μm, mobile phase: acetonitrile/0.1% by weight of aqueous phosphoric acid, gradient at 2 ml/min, temperature: 45° C., external standard).

Compound | Compound III (ppm)
O[C@H](CS)[C@H](O)CS (racemic) [DL-Dithiothreitol] | 749
O=C(O)C=Cc1ccc(O)cc1 [4-Hydroxycinnamic acid] | 2754
COc1ccc(O)cc1 [4-Methoxyphenol] | 1706
Cc1cc(O)cc2c1O[C@](C)(CCC[C@H](C)CCC[C@H](C)CCCC(C)C)CC2 [(+)-delta-Tocopherol] | 81
Cc1cc(C(C)(C)C)c(O)c(C(C)(C)C)c1 [Butylated hydroxytoluene (BHT), Butylated hydroxytoluene] | 576
O=C(O)/C=C/c1ccc(O)c(O)c1 [Caffeic acid] | 616
C=CCc1ccc(O)c(OC)c1 [Eugenol] | 580
COc1cc(/C=C/C(=O)O)ccc1O [Ferulic acid] | 2059
O=C(O)c1cc(O)c(O)c(O)c1 [Gallic acid] | 3700
O=C(O)CNC(=O)CCS [N-(Mercaptopropionyl)glycine] | 1102
CCCCC(CC)COC(=O)C(C#N)=C(c1ccccc1)c1ccccc1 (stereo not drawn) [Octocrylene] | 1377
(+/−)-alpha-Tocopherol | 96
